Test results from patent publication US20230123334A1, “AMINO LIPID COMPOUND, PREPARATION METHOD THEREFOR, AND APPLICATION THEREOF” (SHENZHEN SHENXIN BIOTECHNOLOGY CO., LTD., priority 2020, published 2023).

System: HEK293 cells
Assay: Preliminary screening as mRNA vectors, EGFP mRNA transfection of HEK293 cells
Format: cell-based
Conditions: EGFP mRNA 50 ng per well, 96-well plates; percentage of GFP fluorescent cells relative to total number of cells (Hoechst)
Procedure, shortened: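 HEK293 cells in DMEM plus 10% FBS transfected in 96-well format with 50 ng EGFP mRNA per well; Lipofectamine2000 served as positive control. Read-out is the percentage of GFP-fluorescent cells among total cells, counted by Hoechst nuclear stain.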

Compared with `CCCCCCCCCCCCCCCCNc1nc(NCCN2CCCCC2)nc(SCCCCCCCC)n1` [Compound D4S8N16], `CCCCCCCCCCCCCCCNc1nc(NCCN2CCCCC2)nc(SCCCCCCCCC)n1` [Compound D4S9N15] is higher in “Absolute mRNA transfection efficiency in HEK293 cells” value (“Absolute mRNA transfection efficiency” below): 1.9% for the first, 4.9% for the second.

Going from `CCCCCCCCCCCCCCCCCCNc1nc(NCCN2CCCCC2)nc(SCCCCCCCC)n1` [Compound D4S8N18] to `CCCCCCCCCCCCCCCCNc1nc(NCCN2CCCCC2)nc(SCCCCCCCCCC)n1` [Compound D4S10N16], the “Absolute mRNA transfection efficiency” value rises from 3.5% to 14.7%.

Going from `CCCCCCCCSc1nc(NCCN2CCCCC2)nc(SCCCCCCCC)n1` [Compound D4S8S8] to `CCCCCCCCCSc1nc(NCCN2CCCCC2)nc(SCCCCCCCC)n1` [Compound D4S8S9], the “Absolute mRNA transfection efficiency” value rises from 9.9% to 14.3%.

First: CCCCCCCCCCSc1nc(NCCN2CCCCC2)nc(SCCCCCCCC)n1 [Compound D4S8S10]
Second: CCCCCCCCCCCSc1nc(NCCN2CCCCC2)nc(SCCCCCCCC)n1 [Compound D4S8S11]
The “Absolute mRNA transfection efficiency” value of the first is lower: 9.2% for the first, 10.9% for the second.

Going from `CCCCCCCCCCCCSc1nc(NCCN2CCCCC2)nc(SCCCCCCCC)n1` [Compound D4S8S12] to `CCCCCCCCCCCNc1nc(NCCN2CCCCC2)nc(SCCCCCCCCC)n1` [Compound D4S9N11], the “Absolute mRNA transfection efficiency” value rises from 1.0% to 17.4%.

Compared with `CCCCCCCCCSc1nc(NCCCCCC)nc(NCCN2CCCCC2)n1` [Compound D4S9N6], `CCCCCCCCCSc1nc(NCCCCCCC)nc(NCCN2CCCCC2)n1` [Compound D4S9N7] is higher in “Absolute mRNA transfection efficiency” value: 0.3% for the first, 3.0% for the second.

Compared with `CCCCCCCCCSc1nc(NCCCCCCCC)nc(NCCN2CCCCC2)n1` [Compound D4S9N8], `CCCCCCCCCCSc1nc(NCCCCCCC)nc(NCCN2CCCCC2)n1` [Compound D4S10N7] is lower in “Absolute mRNA transfection efficiency” value: 6.6% for the first, 0.1% for the second.

Going from `CCCCCCCCCNc1nc(NCCN2CCCCC2)nc(SCCCCCCCCC)n1` [Compound D4S9N9] to `CCCCCCCCCCSc1nc(NCCCCCCCC)nc(NCCN2CCCCC2)n1` [Compound D4S10N8], the “Absolute mRNA transfection efficiency” value falls from 11.3% to 0.1%.

First: CCCCCCCCCCCCNc1nc(NCCN2CCCCC2)nc(SCCCCCCCCC)n1 [Compound D4S9N12]
Second: CCCCCCCCCCCNc1nc(NCCN2CCCCC2)nc(SCCCCCCCCCC)n1 [Compound D4S10N11]
The “Absolute mRNA transfection efficiency” value of the first is higher: 9.5% for the first, 0.8% for the second.

Compared with `CCCCCCCCCCCCCNc1nc(NCCN2CCCCC2)nc(SCCCCCCCCC)n1` [Compound D4S9N13], `CCCCCCCCCCCCNc1nc(NCCN2CCCCC2)nc(SCCCCCCCCCC)n1` [Compound D4S10N12] is lower in “Absolute mRNA transfection efficiency” value: 10.8% for the first, 1.0% for the second.

Going from `CCCCCCCCCCCCCCCCNc1nc(NCCN2CCCCC2)nc(SCCCCCCCCC)n1` [Compound D4S9N16] to `CCCCCCCCCCCCCCCNc1nc(NCCN2CCCCC2)nc(SCCCCCCCCCC)n1` [Compound D4S10N15], the “Absolute mRNA transfection efficiency” value falls from 2.2% to 1.5%.

Compared with `CCCCCCCCCCCCCCCCCCNc1nc(NCCN2CCCCC2)nc(SCCCCCCCCC)n1` [Compound D4S9N18], `CCCCCCCCCCCCCCCCNc1nc(NCCN2CCCCC2)nc(SCCCCCCCCCCC)n1` [Compound D4S11N16] is higher in “Absolute mRNA transfection efficiency” value: 8.3% for the first, 12.3% for the second.

First: CCCCCCCCCCSc1nc(NCCCCCC)nc(NCCN2CCCCC2)n1 [Compound D4S10N6]
Second: CCCCCCCCCCCSc1nc(NCCCCCC)nc(NCCN2CCCCC2)n1 [Compound D4S11N6]
The “Absolute mRNA transfection efficiency” value of the first is lower: 0.1% for the first, 2.7% for the second.

Compared with `CCCCCCCCCCSc1nc(NCCCCCCCCC)nc(NCCN2CCCCC2)n1` [Compound D4S10N9], `CCCCCCCCCCCSc1nc(NCCCCCCCC)nc(NCCN2CCCCC2)n1` [Compound D4S11N8] is higher in “Absolute mRNA transfection efficiency” value: 0.2% for the first, 4.3% for the second.

First: CCCCCCCCCCCCCNc1nc(NCCN2CCCCC2)nc(SCCCCCCCCCC)n1 [Compound D4S10N13]
Second: CCCCCCCCCCCCNc1nc(NCCN2CCCCC2)nc(SCCCCCCCCCCC)n1 [Compound D4S11N12]
The “Absolute mRNA transfection efficiency” value of the first is lower: 0.3% for the first, 8.9% for the second.

First: CCCCCCCCCCCCCCCCCCNc1nc(NCCN2CCCCC2)nc(SCCCCCCCCCC)n1 [Compound D4S10N18]
Second: CCCCCCCCCCCCCCCCNc1nc(NCCN2CCCCC2)nc(SCCCCCCCCCCCC)n1 [Compound D4S12N16]
The “Absolute mRNA transfection efficiency” value of the first is higher: 37.7% for the first, 1.3% for the second.

Compared with `CCCCCCCCCCCSc1nc(NCCCCCCC)nc(NCCN2CCCCC2)n1` [Compound D4S11N7], `CCCCCCCCCCCCSc1nc(NCCCCCC)nc(NCCN2CCCCC2)n1` [Compound D4S12N6] is lower in “Absolute mRNA transfection efficiency” value: 2.3% for the first, 0.9% for the second.

Compared with `CCCCCCCCCCCSc1nc(NCCCCCCCCC)nc(NCCN2CCCCC2)n1` [Compound D4S11N9], `CCCCCCCCCCCCSc1nc(NCCCCCCCC)nc(NCCN2CCCCC2)n1` [Compound D4S12N8] is lower in “Absolute mRNA transfection efficiency” value: 4.2% for the first, 1.6% for the second.

Compared with `CCCCCCCCCCCNc1nc(NCCN2CCCCC2)nc(SCCCCCCCCCCC)n1` [Compound D4S11N11], `CCCCCCCCCCCCCCSc1nc(NCCCCCCCC)nc(NCCN2CCCCC2)n1` [Compound D4S14N8] is higher in “Absolute mRNA transfection efficiency” value: 2.0% for the first, 3.2% for the second.

Going from `CCCCCCCCCCCCCNc1nc(NCCN2CCCCC2)nc(SCCCCCCCCCCC)n1` [Compound D4S11N13] to `CCCCCCCCCCCCNc1nc(NCCN2CCCCC2)nc(SCCCCCCCCCCCC)n1` [Compound D4S12N12], the “Absolute mRNA transfection efficiency” value falls from 15.4% to 2.1%.

Going from `CCCCCCCCCCCCCCCNc1nc(NCCN2CCCCC2)nc(SCCCCCCCCCCC)n1` [Compound D4S11N15] to `CCCCCCCCCCCCCCSc1nc(NCCCCCCCCCCCC)nc(NCCN2CCCCC2)n1` [Compound D4S14N12], the “Absolute mRNA transfection efficiency” value falls from 17.0% to 12.6%.

Compared with `CCCCCCCCCCCCCCCCCCNc1nc(NCCN2CCCCC2)nc(SCCCCCCCCCCC)n1` [Compound D4S11N18], `CCCCCCCCCCCCCCCNc1nc(NCCN2CCCCC2)nc(SCCCCCCCCCCCCCC)n1` [Compound D4S14N15] is lower in “Absolute mRNA transfection efficiency” value: 8.8% for the first, 1.7% for the second.

First: CCCCCCCCCCCCSc1nc(NCCCCCCC)nc(NCCN2CCCCC2)n1 [Compound D4S12N7]
Second: CCCCCCCCCCCCCCSc1nc(NCCCCCC)nc(NCCN2CCCCC2)n1 [Compound D4S14N6]
The “Absolute mRNA transfection efficiency” value of the first is lower: 0.5% for the first, 3.0% for the second.

Going from `CCCCCCCCCCCCSc1nc(NCCCCCCCCC)nc(NCCN2CCCCC2)n1` [Compound D4S12N9] to `CCCCCCCCCCCCCCSc1nc(NCCCCCCC)nc(NCCN2CCCCC2)n1` [Compound D4S14N7], the “Absolute mRNA transfection efficiency” value rises from 0.7% to 4.5%.

Compared with `CCCCCCCCCCCCSc1nc(NCCCCCCCCCCC)nc(NCCN2CCCCC2)n1` [Compound D4S12N11], `CCCCCCCCCCCCCCSc1nc(NCCCCCCCCC)nc(NCCN2CCCCC2)n1` [Compound D4S14N9] is higher in “Absolute mRNA transfection efficiency” value: 3.7% for the first, 4.0% for the second.

First: CCCCCCCCCCCCCNc1nc(NCCN2CCCCC2)nc(SCCCCCCCCCCCC)n1 [Compound D4S12N13]
Second: CCCCCCCCCCCCCCSc1nc(NCCCCCCCCCCC)nc(NCCN2CCCCC2)n1 [Compound D4S14N11]
The “Absolute mRNA transfection efficiency” value of the first is lower: 1.3% for the first, 3.8% for the second.

First: CCCCCCCCCCCCCCCNc1nc(NCCN2CCCCC2)nc(SCCCCCCCCCCCC)n1 [Compound D4S12N15]
Second: CCCCCCCCCCCCCCSc1nc(NCCCCCCCCCCCCC)nc(NCCN2CCCCC2)n1 [Compound D4S14N13]
The “Absolute mRNA transfection efficiency” value of the first is lower: 2.0% for the first, 14.5% for the second.

Going from `CCCCCCCCCCCCCCCCCCNc1nc(NCCN2CCCCC2)nc(SCCCCCCCCCCCC)n1` [Compound D4S12N18] to `CCCCCCCCCCCCCCCCNc1nc(NCCN2CCCCC2)nc(SCCCCCCCCCCCCCC)n1` [Compound D4S14N16], the “Absolute mRNA transfection efficiency” value falls from 4.6% to 1.4%.

First: CCCCCCCCCCCCCCCCCCNc1nc(NCCN2CCCCC2)nc(SCCCCCCCCCCCCCC)n1 [Compound D4S14N18]
Second: CCCCCCCCCCCCCCCCCCNc1nc(NCCN2CCCCC2)nc(SCCCCCCCCCCCCCCC)n1 [Compound D4S15N18]
The “Absolute mRNA transfection efficiency” value of the first is lower: 2.2% for the first, 5.1% for the second.

Going from `CCCCCCCCCCCCCCCSc1nc(NCCCCCC)nc(NCCN2CCCCC2)n1` [Compound D4S15N6] to `CCCCCCCCCCCCCCCSc1nc(NCCCCCCC)nc(NCCN2CCCCC2)n1` [Compound D4S15N7], the “Absolute mRNA transfection efficiency” value falls from 1.3% to 1.2%.

Compared with `CCCCCCCCCCCCCCCSc1nc(NCCCCCCCC)nc(NCCN2CCCCC2)n1` [Compound D4S15N8], `CCCCCCCCCCCCCCCSc1nc(NCCCCCCCCC)nc(NCCN2CCCCC2)n1` [Compound D4S15N9] is higher in “Absolute mRNA transfection efficiency” value: 1.6% for the first, 1.8% for the second.

Compared with `CCCCCCCCCCCCCCCSc1nc(NCCCCCCCCCCC)nc(NCCN2CCCCC2)n1` [Compound D4S15N11], `CCCCCCCCCCCCCCCSc1nc(NCCCCCCCCCCCC)nc(NCCN2CCCCC2)n1` [Compound D4S15N12] is higher in “Absolute mRNA transfection efficiency” value: 1.0% for the first, 1.6% for the second.

First: CCCCCCCCCCCCCCCSc1nc(NCCCCCCCCCCCCC)nc(NCCN2CCCCC2)n1 [Compound D4S15N13]
Second: CCCCCCCCCCCCCCCNc1nc(NCCN2CCCCC2)nc(SCCCCCCCCCCCCCCC)n1 [Compound D4S15N15]
The “Absolute mRNA transfection efficiency” value of the first is lower: 0.8% for the first, 3.5% for the second.

For `CCCCCCCCCCCCCCCCNc1nc(NCCN2CCCCC2)nc(SCCCCCCCCCCCCCCC)n1` [Compound D4S15N16], the “Absolute mRNA transfection efficiency” value was 4.8%.
